From ChEMBL document CHEMBL1201862, “PubChem BioAssay data set” (2004)
Active and inactive are the calls of the source.

What was measured:
[1] = HIV-1 Vif–A3G interaction blockers – biochemical, TR-FRET, GST-Vif 1-94, biotin-A3G peptide, dose response retest, primary screen (AID 1117319); format: functional;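 note: TR-FRET signal of purified GST-Vif binding a biotinylated A3G peptide; inhibitors lower the FRET signal by blocking Vif and A3G binding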
[2] = tested on: Streptococcus sp. 'group A'; experiment: Streptococcus pyogenes SK(-)GAS viability under kanamycin – luminescence, BacTiterGlo, confirmation, counter-screen for streptokinase expression inhibitor project, dose response (AID 1900); format: functional, organism-based
Streptokinase A = target: T1, Streptokinase A (Streptococcus pyogenes serotype M1, UniProt P10520); experiment: viability-normalized secreted streptokinase activity reduction – plasminogen activation absorbance, OD405, dose response (AID 1914); format: functional, Streptococcus pyogenes M1 GAS;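 note: secreted streptokinase activity via plasminogen activation per viability signal from cell pellet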
T1 sequence (P10520 whole entry): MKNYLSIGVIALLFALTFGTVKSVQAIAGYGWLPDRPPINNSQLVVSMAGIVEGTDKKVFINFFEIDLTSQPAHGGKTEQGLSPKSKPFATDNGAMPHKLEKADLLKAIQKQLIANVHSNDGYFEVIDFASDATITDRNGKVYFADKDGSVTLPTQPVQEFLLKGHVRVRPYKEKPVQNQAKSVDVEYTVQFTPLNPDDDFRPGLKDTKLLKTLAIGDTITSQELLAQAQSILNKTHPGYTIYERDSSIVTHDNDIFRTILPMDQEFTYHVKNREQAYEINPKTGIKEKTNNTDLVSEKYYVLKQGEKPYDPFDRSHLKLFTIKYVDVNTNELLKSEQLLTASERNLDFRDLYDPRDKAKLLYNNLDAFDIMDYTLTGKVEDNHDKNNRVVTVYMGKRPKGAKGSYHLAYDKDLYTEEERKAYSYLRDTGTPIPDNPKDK

[3] = Trypanosoma cruzi growth suppression in host cells – NIH3T3 host cells, beta-gal luminescence, confirmation (AID 2044); format: functional, cell-based;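 note: intracellular parasites grown in NIH/3T3 mouse fibroblasts as host cells; luminescent beta-galactosidase reporter signal from transgenic T. cruzi replicating inside host cells; inhibitors lower the luminescence signal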
[4] = NIH3T3 cell viability loss – ATP luminescence, mouse fibroblasts, counter-screen, dose response (AID 2010); format: functional, cell-based;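 note: cells exposed to compound for about 90 hours before reading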
Streptococcus = experiment: GAS UMAA2166 growth inhibition – luminescence, BacTiterGlo, counter-screen for streptokinase expression inhibitor project, dose response (AID 1915); format: functional, organism-based;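 note: potency for reduction of bacterial viability or growth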
[5] = Luminescence Cell-Based Dose Retest to Confirm Inhibitors of Cancer Stem Cells. [Related pubchem assays (depositor defined):AID2717, AID2721]; format: functional; settings: Homo sapiens
[6] = target: Disintegrin and metalloproteinase domain-containing protein 17 (Homo sapiens, UniProt P78536); experiment: inhibition of ADAM17 substrate cleavage – biochemical, quenched FRET substrate, counter-screen for ADAM10 exosite inhibitor project, dose response (AID 743253)
Leucine aminopeptidase = target: T2, Leucine aminopeptidase (Plasmodium falciparum 3D7, UniProt Q8IL11); experiment: P. falciparum M17LAP inhibitors, primary screen, biochemical, fluorogenic H-Leu-NHMec substrate, 1536-well (AID 1619); format: functional
T2 sequence (Q8IL11 whole entry): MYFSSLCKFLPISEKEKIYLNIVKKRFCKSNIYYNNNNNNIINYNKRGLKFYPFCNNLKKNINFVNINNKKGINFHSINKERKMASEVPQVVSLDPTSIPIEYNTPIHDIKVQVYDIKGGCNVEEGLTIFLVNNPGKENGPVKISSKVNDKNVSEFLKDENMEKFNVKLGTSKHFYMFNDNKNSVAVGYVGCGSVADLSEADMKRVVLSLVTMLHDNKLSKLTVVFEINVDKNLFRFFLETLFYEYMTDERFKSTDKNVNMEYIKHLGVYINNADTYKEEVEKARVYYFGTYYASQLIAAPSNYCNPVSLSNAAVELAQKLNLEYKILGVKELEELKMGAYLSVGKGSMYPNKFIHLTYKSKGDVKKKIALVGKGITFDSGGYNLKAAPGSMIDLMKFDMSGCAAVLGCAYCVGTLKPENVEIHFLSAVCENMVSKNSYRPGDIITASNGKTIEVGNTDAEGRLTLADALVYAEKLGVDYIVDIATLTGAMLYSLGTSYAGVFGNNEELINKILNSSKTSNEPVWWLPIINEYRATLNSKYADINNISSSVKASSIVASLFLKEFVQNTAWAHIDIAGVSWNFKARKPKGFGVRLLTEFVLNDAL

[7] = target: T3, Mannose-6-phosphate isomerase (Homo sapiens, UniProt P34949); experiment: MPI inhibition at elevated mannose 6-phosphate – biochemical, fluorescence intensity, high mannose 6-phosphate, primary screen (AID 1220)
T3 sequence (P34949 whole entry): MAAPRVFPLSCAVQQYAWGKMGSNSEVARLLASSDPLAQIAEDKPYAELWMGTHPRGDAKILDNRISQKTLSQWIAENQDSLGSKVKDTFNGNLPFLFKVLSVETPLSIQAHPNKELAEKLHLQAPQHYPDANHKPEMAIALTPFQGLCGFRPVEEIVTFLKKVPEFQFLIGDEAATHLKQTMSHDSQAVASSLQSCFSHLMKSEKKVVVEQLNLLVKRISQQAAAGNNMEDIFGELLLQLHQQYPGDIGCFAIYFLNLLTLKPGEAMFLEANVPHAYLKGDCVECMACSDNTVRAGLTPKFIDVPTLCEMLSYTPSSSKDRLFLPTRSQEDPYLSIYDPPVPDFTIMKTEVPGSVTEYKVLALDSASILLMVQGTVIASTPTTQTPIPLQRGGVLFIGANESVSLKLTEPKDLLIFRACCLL

[8] = viability loss in Vero cells – cytotoxicity control for Vif-APOBEC3G degradation inhibitor project, dose response (AID 1117358); format: functional; settings: Vero
[9] = blockers of HIV-1 envelope-mediated cell-cell fusion – cherry-pick, dose response (AID 652057); format: functional, cell-based
[10] = HIV-1 AD8 envelope cell-cell fusion blockers – cherry-pick, dose response (AID 652062); format: functional, cell-based;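 note: luciferase signal from cell-cell fusion driven by HIV-1 clade B AD8 Env; potency is for inhibitors of fusion seen as a drop in luminescence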
[11] = target: Endoplasmic reticulum aminopeptidase 1 (Homo sapiens, UniProt Q9NZ08); experiment: inhibition of human ERAP1 enzyme activity – biochemical, cherry-pick, set 2, plate reader, dose response (AID 743314)
[12] = HPDE-C7 pancreatic duct cell viability loss – fluorescence, HTS (AID 430); format: functional, cell-based; settings: Homo sapiens
[13] = viability loss of HPDE-C7K cells – cell-based, fluorescence, HTS, primary screen (AID 431); format: functional; settings: Homo sapiens

Endoplasmic reticulum aminopeptidase 1, sequence (Q9NZ08 whole entry): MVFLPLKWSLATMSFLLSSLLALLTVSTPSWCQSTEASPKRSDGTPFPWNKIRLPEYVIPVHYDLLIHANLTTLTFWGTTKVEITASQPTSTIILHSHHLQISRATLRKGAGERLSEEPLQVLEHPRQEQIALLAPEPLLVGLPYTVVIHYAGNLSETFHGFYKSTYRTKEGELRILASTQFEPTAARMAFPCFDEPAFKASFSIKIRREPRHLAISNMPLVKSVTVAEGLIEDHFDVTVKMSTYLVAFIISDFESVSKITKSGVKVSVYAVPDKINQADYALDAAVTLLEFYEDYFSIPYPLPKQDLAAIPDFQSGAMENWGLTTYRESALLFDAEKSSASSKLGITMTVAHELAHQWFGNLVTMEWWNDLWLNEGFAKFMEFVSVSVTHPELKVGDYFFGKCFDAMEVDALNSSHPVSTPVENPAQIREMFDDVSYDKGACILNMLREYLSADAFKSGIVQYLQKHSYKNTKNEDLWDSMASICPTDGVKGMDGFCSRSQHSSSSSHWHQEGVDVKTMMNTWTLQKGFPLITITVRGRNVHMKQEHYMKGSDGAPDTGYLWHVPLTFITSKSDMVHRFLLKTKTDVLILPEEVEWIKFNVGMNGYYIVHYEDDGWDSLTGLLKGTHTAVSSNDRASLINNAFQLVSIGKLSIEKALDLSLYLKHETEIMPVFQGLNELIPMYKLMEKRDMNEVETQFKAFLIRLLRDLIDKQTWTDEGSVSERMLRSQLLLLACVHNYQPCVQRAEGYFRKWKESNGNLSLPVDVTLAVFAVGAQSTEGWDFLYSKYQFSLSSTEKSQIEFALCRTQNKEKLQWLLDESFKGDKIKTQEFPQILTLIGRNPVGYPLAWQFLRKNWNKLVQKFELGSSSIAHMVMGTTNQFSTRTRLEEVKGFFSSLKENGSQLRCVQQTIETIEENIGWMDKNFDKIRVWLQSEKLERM
Disintegrin and metalloproteinase domain-containing protein 17, sequence (P78536 whole entry, the tested form may be a part): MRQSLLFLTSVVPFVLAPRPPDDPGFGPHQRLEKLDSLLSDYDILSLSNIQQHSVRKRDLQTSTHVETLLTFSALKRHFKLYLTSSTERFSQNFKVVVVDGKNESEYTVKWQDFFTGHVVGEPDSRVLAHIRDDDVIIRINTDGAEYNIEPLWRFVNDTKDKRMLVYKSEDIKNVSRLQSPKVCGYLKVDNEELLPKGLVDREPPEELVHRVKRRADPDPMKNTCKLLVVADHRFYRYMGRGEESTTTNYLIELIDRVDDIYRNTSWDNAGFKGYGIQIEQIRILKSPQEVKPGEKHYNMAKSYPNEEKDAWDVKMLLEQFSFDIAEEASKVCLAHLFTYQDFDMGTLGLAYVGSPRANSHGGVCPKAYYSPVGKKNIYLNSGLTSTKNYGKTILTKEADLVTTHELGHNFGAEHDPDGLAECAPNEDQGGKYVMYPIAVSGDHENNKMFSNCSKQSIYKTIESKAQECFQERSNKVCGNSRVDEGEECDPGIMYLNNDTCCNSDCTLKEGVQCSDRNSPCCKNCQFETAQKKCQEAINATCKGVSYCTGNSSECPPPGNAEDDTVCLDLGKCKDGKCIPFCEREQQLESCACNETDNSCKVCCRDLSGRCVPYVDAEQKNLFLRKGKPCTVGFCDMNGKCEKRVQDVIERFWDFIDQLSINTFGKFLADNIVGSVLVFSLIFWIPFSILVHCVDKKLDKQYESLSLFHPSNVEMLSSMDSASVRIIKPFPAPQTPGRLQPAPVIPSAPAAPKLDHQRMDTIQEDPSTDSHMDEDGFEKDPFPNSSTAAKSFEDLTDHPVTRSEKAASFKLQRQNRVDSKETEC

COc1ccc(CCN2C(=O)c3cccnc3C2=O)cc1OC
IC50 [1]: > 100 µM (active)

O=[N+]([O-])c1ccc(S(=O)(=O)Nc2ccc(-c3csc(-c4ccccc4)n3)cc2)cc1
EC50 [2]: 3.77 µM (active)
EC50 (Streptokinase A): > 150 µM (not active)
EC50 [3]: 0.118 µM (active)
EC50 [4]: > 60 µM (not active)
EC50 (Streptococcus): 8.29 µM (active)
AC50 [5]: 2.33 µM (active)
IC50 [6]: > 69.5 µM (inactive)

CC(C)c1ccc(C(=O)CSc2nc[nH]n2)cc1
IC50 (Leucine aminopeptidase): 33 µM (active)
IC50 [7]: 9.69 µM (active)

N#Cc1cn(CCOc2ccccc2F)c2ccccc12
CC50 [8]: > 40 µM (active)

Cc1noc(C)c1S(=O)(=O)N(C)C[C@@H]1Oc2ccc(NC(=O)Cc3ccccc3)cc2CC(=O)N([C@H](C)CO)C[C@@H]1C
AC50 [9]: < 0.26 µM (active)
AC50 [10]: 2.92 µM (active)

O=C(NCc1ccccc1)[C@@H]1[C@@H](CO)[C@@H]2Cn3c(ccc(/C=C/c4ccccc4)c3=O)[C@H]1N2CC1CC1
AC50 [11]: 11.1 µM (active)

CN1[C@H](C(=O)NC2CCC2)[C@@H](CO)[C@@H]2Cn3c(ccc(/C=C/c4ccccc4)c3=O)[C@@H]21
AC50 [11]: 18 µM (active)

O=C([C@@H]1[C@@H](CO)[C@@H]2Cn3c(ccc(/C=C/c4ccccc4)c3=O)[C@@H]2N1CC1CC1)N1CCOCC1
AC50 [11]: 13.7 µM (active)

CCN1[C@@H]2c3ccc(/C=C/c4ccccc4)c(=O)n3C[C@H]1[C@H](CO)[C@H]2C(=O)N1CCOCC1
AC50 [11]: 6.11 µM (active)

CCOC(=O)C1=C(C)N=C(C)/C(=C(/O)OC)C1c1cccc(Cl)c1Cl (centres undefined)
EC50 [12]: 8.98 µM (active)
EC50 [13]: 10.4 µM (active)
